{"source": "patent US20200282009A1", "about": "“METHODS OF TREATING DISEASES ASSOCIATED WITH VASCULAR SMOOTH MUSCLE CELL PROLIFERATION” (BioLineRx Ltd., priority 2017, published 2020)", "key": {"SK-N-BE(2) cells": {"tested_on": "SK-N-BE(2) cells", "test": "Cell survival assay (PI staining, FACS)", "type": "cell-based, human", "conditions": "BL-8040 0-20 μM or AMD3100 10 and 20 μM, 24 hours", "procedure": "(§1) A total of 1×10^5 cells/mL were cultured in 24-well plates with […] RPMI 1640 medium supplemented with 10% FCS. 24 hours later, the medium was changed to RPMI 1640 supplemented with either 1% FCS, with BL-8040 or AMD3100 or ABT199. Then 24 hours later, the cells were harvested, washed, and stained with PI (Sigma). The number of live cells was counted and analyzed using FACS analysis."}, "Shy-SY5Y cells": {"tested_on": "Shy-SY5Y cells", "test": "Cell survival assay (PI staining, FACS)", "type": "cell-based, human", "conditions": "BL-8040 0-20 μM or AMD3100 10 and 20 μM, 24 hours", "procedure": "as §1"}, "[1]": {"tested_on": "miR-15a, miR-16-1, BCL-2, CCND1", "test": "qPCR of RNA from xenograft tumors", "type": "in vivo, NSG mice", "conditions": "treated vs un-treated tumors", "procedure": "Total RNA from various cell lines and mouse tissues was isolated using Trizol reagent (Invitrogen) according to the manufacture's protocol, followed by DNaseI treatment using the DNaseI Kit where needed (Ambion). The concentrations were measured by Nanodrop (ND spectrophotometer) and the integrity was analyzed by gel electrophoreses on 1% agarose gel.\ncDNA was synthesized from 0.5-1 μg total RNA using the Quanta Biosciences qScript™ cDNA Synthesis Kit (95047-100) for mRNA analysis, and using the qScript™ microRNA cDNA Synthesis Kit (95107-100) for miRNAs analysis. Quantiative PCR (qPCR) of miRNAs and mRNA was performed using the CFX384, C1000 touch thermal cycler (Bio-Rad) and a SYBR Green PCR Kit: Quanta Cat. #84018 and #84071, respectively. The fold expression and statistical significance were calculated using the 2-ΔΔ Ct method. All experiments were performed in triplicate.\n(§2) Human SK-N-BE(2) cells were orthotopically injected into the left adrenal gland of 6-8 weeks old NSG mice. A 27-gauge needle was introduced through the left adrenal fat pad and 5×10∧5 cells/20 μl PBS were inoculated to the adrenal gland. NSG mice were maintained under defined flora conditions at the Hebrew University Pathogen-Free Animal Facility. Tumor growth and volume were monitored bi-weekly by using T2-weighted MRI until tumors reached the ethical limit volume and mice were randomized to drug-treated or control mice. Mice in the treated group were subjected to 2 treatment protocols. In the first treatment protocol BL-8040 (400 μg) was injected daily, starting three days following inoculation, and was continued for 35 days. In the second treatment protocol mice were monitored for 21 days. As of day 7, mice were treated with a daily injection of BL-8040 (400 μg) for 14 consecutive days."}, "miR-15a, DLEU2": {"tested_on": "miR-15a, DLEU2", "test": "Gene expression array of xenograft tumors", "type": "in vivo, NSG mice", "conditions": "treated vs un-treated tumors", "source_text": "RNA was isolated from tumors and subjected to gene expression profiling using GeneChip human Gene 1.0 ST Array (Affymetrix). The gene expression values were extracted using the Partek Genomics Suite 6.6 software and, after thresholding and filtering procedures, were submitted to fold change and cluster analyses (Gene Expression Omnibus [GEO] GSE94426).\nas §2"}, "Ki67, Cyclin D1, BCL-2": {"tested_on": "Ki67, Cyclin D1, BCL-2", "test": "Immunohistochemistry of xenograft tumor sections", "type": "in vivo, NSG mice", "procedure": "For histological analysis, tumor tissue was cut into […] sections, deparaffinized with xylene, and hydrated through graded ethanol. Endogenous peroxidase was blocked by incubation for 5 minutes in 3% H2O2. A 25-mM citrate buffer (pH 6.0) was used for antigen retrieval, cooked in a pressure cooker for 20 minutes, and left to cool for 30 minutes at room temperature. Slides were washed in Optimax (Pharmatrade) and incubated with primary Ab diluted in CAS-Block (Zymed Laboratories). For Ki67 1:100 (Thermo Scientific), for CXCR4 anti-human CXCR4 monoclonal antibody clone 12G5 1:100 (R&D), for CXCL12 monoclonal CXCL12 antibody 79018 (R&D), for BCL-2 monoclonal BCL-2 antibody clone 124 (cell marque) and for cyclinD1 monoclonal BCL-1 antibody clone sp4 (spring). Staining overnight at 4° C. For all stainings, a conjugated horseradish peroxidase secondary Ab anti mouse or anti rabbit (Envision; Dako) was used for 30 minutes and developing was done with diaminobenzidine for 5 minutes followed by counterstaining with hematoxylin. For ki67, BCL-2 and Cyclin D1, staining levels were quantified using the Image Pro Analyzer image analysis software.\nas §2"}, "[2]": {"tested_on": "BCL-2, cycD1, pERK in SK-N-BE(2) cells", "test": "Western blot analysis of treated cells", "type": "cell-based, human", "conditions": "20 μM, 24 hours", "procedure": "SK-N-BE(2) cells were seeded into a 12-well plate at 2×10^5/1 ml of medium per well. The cells were incubated for 48 hours and supernatants were collected. For whole cells: tumor samples and cells were lysed by the addition of lysis buffer containing 50 mM Tris-HCl PH 7.6, 150 mM NaCl, 5 mM EDTA pH 8, 0.5% NP40 and protease inhibitor cocktail (Roche Diagnostics). Lysate was incubated with buffer for 15-20 minutes and then centrifuges at 14,000 rpm, 15 min, at 4° C. Protein amounts were determined by Bradford assay (Bio-Rad).\nProtein extracts were equally loaded onto 10% SDS-polyacrylamide gel, electrophorized and transferred onto a polyvinylidenedifluoride (PVDF) membrane (Bio-Rad Laboratories). Then, membranes were blocked and incubated with primary specific antibody O.N. at 4° C. For BCL-2 mouse monoclonal (Abcam). For cycD1 rabbit monoclonal (Thermo). For pERK1/2 rabbit monoclonal (Cell signaling). For β-Actin mouse monoclonal (MP biomedicals). After the washing procedure (3 times, 10 min in washing solution), the membrane was incubated with a secondary immunopure HRP-conjugated antibody, anti-mouse or anti rabbit (Envision; Dako) (1/10,000), washed (5 times, 6 min) and detected with the EZ-ECL kit (Biological Industries). Photon emission was identified by ChemiDoc MP imaging system (Bio-Rad). Intensities of protein bands were quantified by computerized densitometry using Image lab software (Bio-Rad)."}, "[3]": {"tested_on": "BCL-2, cycD1, pERK in Shy-SY5Y cells", "test": "Western blot analysis of treated cells", "type": "cell-based, human", "conditions": "20 μM, 24 hours"}, "CXCR4 receptor": {"biological_target": "CXCR4 receptor (Homo sapiens, UniProt P61073)", "sequence (P61073 whole entry)": "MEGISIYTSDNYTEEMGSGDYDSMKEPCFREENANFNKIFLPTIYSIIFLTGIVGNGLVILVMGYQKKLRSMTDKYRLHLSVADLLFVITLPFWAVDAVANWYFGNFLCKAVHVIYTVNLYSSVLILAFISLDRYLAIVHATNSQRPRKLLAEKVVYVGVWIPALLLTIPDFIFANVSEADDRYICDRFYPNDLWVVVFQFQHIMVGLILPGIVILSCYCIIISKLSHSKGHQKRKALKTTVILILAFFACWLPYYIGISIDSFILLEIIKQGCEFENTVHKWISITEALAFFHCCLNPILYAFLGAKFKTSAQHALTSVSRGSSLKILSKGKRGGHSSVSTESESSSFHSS", "conditions": "Peled et al. 2012; cited from earlier work"}}, "note": "[ ]: non-standard residue; d: D form. The star is where a group is joined. Benzoyl(4-F) = O=C(c1ccc(F)cc1)*; Cit = NC(=O)NCCC[C@H](N)C(=O)O", "data": [{"substance": "4F-benzoyl-Arg-Arg-Nal-Cys-Tyr-Cit-Lys-DLys-Pro-Tyr-Arg-Cit-Cys-Arg-NH2 ({Benzoyl(4-F)}-RR[Nal]CY[Cit]K[dK]PYR[Cit]CR-NH2; not fully specified; printed as 4F-benzoyl-Arg-Arg-Nal-Cys-Tyr-Cit-Lys-DLys-Pro-Tyr-Arg-Cit-Cys-Arg-NH2; cysteine pairing not given here) [BL-8040]", "values": [{"measurement": "cell viability (viable cells counted)", "setting": "SK-N-BE(2) cells", "value": "decreased viability"}, {"measurement": "cell viability (viable cells counted)", "setting": "Shy-SY5Y cells", "value": "decreased viability"}, {"measurement": "BCL-2 mRNA in tumors (qPCR)", "setting": "[1]", "value": "significantly downregulated"}, {"measurement": "CCND1 mRNA in tumors (qPCR)", "setting": "[1]", "value": "significantly downregulated"}, {"measurement": "miR-15a level in tumors (qPCR)", "setting": "[1]; n=9", "value": "significantly elevated"}, {"measurement": "miR-16-1 level in tumors (qPCR)", "setting": "[1]; n=9", "value": "significantly elevated"}, {"measurement": "expression of miR-15a and its parent gene DLEU2 (gene chip array)", "setting": "miR-15a, DLEU2", "value": "increased expression"}, {"measurement": "Ki67 staining of tumor sections", "setting": "Ki67, Cyclin D1, BCL-2; 400 μg daily for 14 days from day 7, compared to controls", "value": "reduced Ki67 staining"}, {"measurement": "reduction in Cyclin D1 expression, tumor sections (IHC)", "setting": "Ki67, Cyclin D1, BCL-2; treated vs control sections, significant", "value": 56, "unit": "%"}, {"measurement": "reduction in BCL-2 staining, tumor sections (IHC)", "setting": "Ki67, Cyclin D1, BCL-2; treated vs control, staining weak, difference not significant", "value": 36, "unit": "%"}, {"measurement": "BCL-2 protein (western blot)", "setting": "[2]", "value": "reduction"}, {"measurement": "ERK phosphorylation (western blot)", "setting": "[2]", "value": "decreased ERK phosphorylation"}, {"measurement": "cycD1 protein (western blot)", "setting": "[2]", "value": "reduction"}, {"measurement": "BCL-2 protein (western blot)", "setting": "[3]", "value": "reduction"}, {"measurement": "ERK phosphorylation (western blot)", "setting": "[3]", "value": "decreased ERK phosphorylation"}, {"measurement": "cycD1 protein (western blot)", "setting": "[3]", "value": "reduction"}, {"measurement": "affinity of binding to the CXCR4 receptor", "setting": "CXCR4 receptor", "value": "high affinity"}, {"measurement": "receptor occupancy", "setting": "CXCR4 receptor", "value": "long receptor occupancy"}]}]}
